B1: S100A8/A9 proteins: S100A8/A9 proteins added in the in vitro migration assay (protein, UniProt P05109 1-93; P06702 1-114, looked up)
Protein S100-A8: MLTELEKALNSIIDVYHKYSLIKGNFHAVYRDDLKKLLETECPQYIRKKGADVWFKELDINTDGAVNFQEFLILVIKMGVAAHKKSHEESHKE
Protein S100-A9: MTCKMSQLERNIETIINTFHQYSVKLGHPDTLNQGEFKELVRKDLQNFLKKENKNEKVIEHIMEDLDTNADKQLSFEEFIMLMARLTWASHEKMHEGDEGPGHHHKPGLGEGTP

Experiments:
B16 tumor = B16 tumor model with intraperitoneal Tasquinimod; assay type: in vivo, mice; conditions: for tumor growth: 20 μg/mouse intraperitoneally
Procedure: 7-2) Tumor model: B16 cells (1.5×10^5 cells/mouse) were inoculated into mice subcutaneously, and 20 μg of Tasquinimod/mouse was injected intraperitoneally on day 2. Tumor size was measured every 2-3 days, and tumor growth curves were plotted. Tumors were isolated from mice on day 19, and the percentage of immune cells was determined by flow analysis.

PMN-MDSC [1] = test: T cell proliferation inhibition assay of PMN-MDSC; assay type: cell-based, mice
Procedure: 6-4) T cell proliferation assay: spleens of OT-1 mice were isolated, single-cell suspensions in PBS (5×10^7 cells/ml) were prepared, and CTV dye with a final concentration of […] was added to obtain a mixture. The mixture was incubated in a 37° C. water bath for 20 minutes, added with 5 times the volume of ice pre-cooled RPMI medium (RPMI-1640+10% FBS), mixed by inversion, stood at room temperature for 5 minutes, centrifuged for 5 minutes at 400 g, and then resuspended in RPMI medium (1×10^6 cells/ml). 80 μl of CTV-labeled cells was added with 40 μl of OVA peptide at a concentration of 100 ng/ml, and then supplemented with 80 μl of RPMI medium. The solution was added to the wells of a 96-well U bottom plate and incubated at 37° C. in a carbon dioxide incubator, and then antibody labeling and flow assay were carried out 48-72 hr later.
6-5) T cell proliferation inhibition assay of PMN-MDSC: spleens of B16 tumor-bearing mice were isolated, single-cell suspensions were prepared and labeled with antibodies, and PMN-MDSC cells (CD45^+/CD11b^+/Lying6G^+) were sorted by flow cytometry and resuspended in RPMI medium (1×10^6 cells/ml). 80 μl of CTV-labeled cells in […]) was added with 40 μl of OVA peptide at a concentration of 100 ng/ml, PMN-MDSC cells, and culture medium. […]

PMN-MDSC [2] = test: PMN-MDSC in vitro cell migration assay (Transwell); assay type: cell-based, mice; conditions: KO PMN-MDSCs, 2 hr
Procedure: 6-2) PMN-MDSC in vitro cell migration assay (Transwell): single-cell suspensions were prepared from isolated spleens of tumor-bearing mice and labeled with antibodies, and PMN-MDSC cells (CD45+/CD11b+/Ly6G+) were sorted. 10^5 PMN-MDSC cells were added to the upper layer of Transwell and then placed in a 37° C. incubator for 2 hr, and then the number of PMN-MDSC cells in the lower layer was analyzed by flow assay to calculate the migration ratio of the cells.
7-1) PMN-MDSC in vitro cell migration assay (Transwell): spleens of B16 tumor-bearing mice were isolated, single-cell suspensions were prepared and labeled with antibodies, and PMN-MDSC cells (CD45+/CD11b+/Lying6G+) were sorted by flow cytometry. 10^5 PMN-MDSC cells were added to the upper layer of Transwell and then placed in a 37° C. incubator, and then S100A8/A9 inhibitor (Tasquinimod) or DMSO control with a final concentration of 1 μg/ml was added, the number of PMN-MDSC cells in the lower layer was analyzed by flow-assay after 2 hr, and the percentage of cell migration was calculated.

Molecule	tumor growth (B16 tumor; CD300LD KO mice)	tumor growth (B16 tumor; WT mice)	proportion of intratumoral PMN-MDSCs (B16 tumor; tumors isolated on day 19, WT and KO mice)	inhibitory effect of PMN-MDSCs on T cell proliferation (PMN-MDSC [1]; KO PMN-MDSCs)	inhibitory effect of PMN-MDSCs on T cell proliferation (PMN-MDSC [1]; WT PMN-MDSCs)	in vitro migration ability of PMN-MDSC (PMN-MDSC [2])
COc1cccc2c1c(O)c(C(=O)N(C)c1ccc(C(F)(F)F)cc1)c(=O)n2C [Tasquinimod]	barely inhibited tumor growth	inhibited tumor growth	consistent with the changes of tumors	little effect	significantly reduced the inhibitory effect	
B1						enhance the weakened migration ability

— patent US20250205304A1, “CD300LD INHIBITOR AND USE THEREOF IN THE PREPARATION OF TUMOR IMMUNOTHERAPY PRODUCTS” (FUDAN UNIVERSITY, priority 2021, published 2025)
